Data reported in patent US20160060234A1, “CYSTEINE DERIVATIVE” (AJINOMOTO CO., INC., priority 2010, published 2016).
pIC50: −log10 of the molar value. Counter-ions that a name gives are not always drawn. Blank lines part the entries; values can stand above or below the compound they belong to.

Key:
[1] = Time-course stability test at 70° C. of cis form-trans form mixture (Experimental Example 2); assay type: physicochemical; settings: 5 days; for residual ratio (%) at pH 4: 25 mM phosphate buffer pH 4, 70° C.; for residual ratio (%) at pH 4 / residual ratio (%) at pH 5 / residual ratio (%) at pH 6 / residual ratio (%) at pH 7: HPLC area vs day 0; for preservation stability (in words, from Table 1): 25 mM phosphate buffer pH 4-7, 70° C.; for residual ratio (%) at pH 5: 25 mM phosphate buffer pH 5, 70° C.; for residual ratio (%) at pH 6: 25 mM phosphate buffer pH 6, 70° C.; for residual ratio (%) at pH 7: 25 mM phosphate buffer pH 7, 70° C.
Method: A time-course stability test was performed using about 1:1 mixture (20 mg/20 ml) of cis form-trans form of N-Ac-CP2Et obtained in Synthetic Example 7 in a 25 mM phosphate buffer at pH 4, 5, 6, and 7 and 70° C. in the same manner as in Examples Experimental Example 1. The test was performed for 5 days. As an index of a time-course stability test at 70° C., the area value of a target substance 5 days after start of the stability test relative to the area value of the target substance on day 0 after start of the stability test was calculated in % on an HPLC chart and used as a residual ratio.
Detector: ultraviolet absorption spectrophotometer (measurement wavelength; 210 nm) Column: Inertsil ODS-3 (High Pressure type, GL Sciences) (particle size 3 μm, inner diameter 4.6 mm, length 250 mm) eluent: A: 0.05M KH2PO4 (adjusted to pH2 with 85% H3PO4), B: MeOH gradient conditions: 0-5 minute: A=100, −25 minute: A:B=50:50, −35 minute: A:B=50:50, −40 minute: A=100, −45 minute: A=100 flow rate: 0.8 mL/minute column temperature: 30° C. sample concentration: 25-50 mg/dL injection volume: 20 μL retention time (minute): N-Ac-CP2Et (cis form): 31.9, N-Ac-CP2Et (trans form): 33.9

B16 melanoma = test: Eumelanin production suppression test; assay type: cell-based; settings: Mus musculus, 72 h, 3 days culture, absorbance of medium at 450 nm, control = 100%, read-out: 50% melanin production suppressing concentration
Method: B16 melanoma was cultured in DMEM (Dulbecco's Modified Eagle Medium) (high glucose, containing 10% serum). Confluent cells were detached with trypsin, and plated on a 96 well plate. After cell adhesion to the plate the next day, the medium was changed to DMEM added with each evaluation sample (control (no sample addition), cysteine derivatives of each Synthetic Example) at a predetermined evaluation concentration (diluted from 10 mM according to sample), and the cells were cultured for 3 days. The 96 well plate was shaken for 5 minutes in a plateshaker, and the absorbance of the medium at 450 nm was measured by a microplatereader. The absorbance after 3 days from the addition of a predetermined concentration of each sample was shown in relative percentage to the measured value (absorbance) of the control (no sample addition) as 100%, and the concentration necessary for suppressing eumelanin production in each sample by 50% was calculated as 50% melanin production suppressing concentration relative to the amount of eumelanin in the control as 100%.
The microplatereader used in this eumelanin production suppression test was Benchmark microplatereader, manufactured by BIORAD.

[2] = Time-course stability test at 70° C. (Experimental Example 1); assay type: physicochemical; settings: 25 mM phosphate buffer, pH 4, 5, 6 and 7, 70° C., 4 days, HPLC
Method: A time-course stability test was performed using N-Ac-CP2Et obtained in Synthetic Example 1 and N-Ac-CP obtained in Synthetic Example 13 in a 25 mM phosphate buffer at pH 4, 5, 6, and 7 and 70° C. The test was performed for 4 days. As comparison targets, CP obtained in Reference Example 1, and CP2Et obtained in Reference Example 2 were used. For the time-course stability test, HPLC; (pump) HITACHI L-7100, (Autosampler) HITACHI L-2200, and (detector) HITACHI L-4000 were used.
As an index of a time-course stability test at 70° C., the area value of a target substance after time course changes relative to the area value of the target substance on day 0 after start of the stability test was calculated in % on an HPLC chart and used as a residual ratio.
detector: ultraviolet absorption spectrophotometer (measurement wavelength; 210 nm) column: Inertsil ODS (GL Sciences) (particle size 3 μm, inner diameter 4.6 mm, length 250 mm) eluent: 4 mL/L aqueous phosphoric acid solution:methanol=3:1 (v/v) flow rate: 0.8 mL/minute column temperature: 50° C. sample concentration: 100 mg/dL injection volume: 20 μL retention time (minute): CP: 4.6, 4.8 (diastereomer mixture), N-Ac-CP: 8.0 […]

pIC50 (B16 melanoma): 2.58
SMILES: CCOC(=O)C1CSC(C)(C(=O)OCC)N1C(C)=O (centres unmarked) [Synthetic Example 19, N-acetyl-2-methylthiazolidine-2,4-dicarboxylic acid 2,4-diethyl ester]

pIC50 (B16 melanoma): 2.85
SMILES: CCOC(=O)C1(C)SCC(C(=O)OC(C)C)N1C(C)=O (centres unmarked) [Synthetic Example 20, N-acetyl-2-methylthiazolidine-2,4-dicarboxylic acid 2-ethyl 4-isopropyl ester]

pIC50 (B16 melanoma): 2.26
SMILES: CC(=O)N1C(C(=O)O)CSC1(C)C(=O)O (centres unmarked) [Synthetic Example 13, N-acetyl-2-methylthiazolidine-2,4-dicarboxylic acid]
preservation stability (residual ratio, FIGS. 1 to 4) [2]: preservation stability better than CP and CP2Et

The next lines start with the compound.

SMILES: CCOC(=O)C1(C)SCC(C(=O)O)N1C(C)=O (stereo not drawn) [N-Ac-CP2Et (trans form), N-acetyl-2-methylthiazolidine-2,4-dicarboxylic acid 2-ethyl ester]
residual ratio (%) at pH 4 [1]: 95.8% | preservation stability (in words, from Table 1) [1]: good preservation stability | residual ratio (%) at pH 5 [1]: 99.8% | residual ratio (%) at pH 6 [1]: >99.9% | residual ratio (%) at pH 7 [1]: >99.9%

SMILES: CCOC(=O)C1(C)SCC(C(=O)O)N1C(C)=O (centres unmarked) (as salt: salt) [Synthetic Example 1, N-acetyl-2-methylthiazolidine-2,4-dicarboxylic acid 2-ethyl ester]
melting point: 138 to 141 °C

SMILES: CCOC(=O)C1(C)SCC(C(=O)O)N1C(C)=O (centres unmarked) [Synthetic Example 1, N-acetyl-2-methylthiazolidine-2,4-dicarboxylic acid 2-ethyl ester]
preservation stability (residual ratio, FIGS. 1 to 4) [2]: preservation stability better than CP and CP2Et | pIC50 (B16 melanoma): 2.34

SMILES: CCOC(=O)C1(C)SCC(C(=O)O)N1C(C)=O (stereo not drawn) [N-Ac-CP2Et (cis form), N-acetyl-2-methylthiazolidine-2,4-dicarboxylic acid 2-ethyl ester]
residual ratio (%) at pH 4 [1]: 69.9% | preservation stability (in words, from Table 1) [1]: good preservation stability | residual ratio (%) at pH 5 [1]: 93.5% | residual ratio (%) at pH 6 [1]: 96.9% | residual ratio (%) at pH 7 [1]: >99.9%
